Results: PMC7156458, “Synthetic biology based construction of biological activity-related library of fungal decalin-containing diterpenoid pyrones” (Nature Communications, 2020)

Target: Aβ42 (Homo sapiens, UniProt P05067)
Test: Th-T (thioflavin-T) assay of Aβ42 aggregation
Type: biochemical
Conditions: for Th-T fluorescence of Aβ42 (sheet Fig. 7a), mean of three wells: head suffix _50 (concentration 50); for Th-T assay plate reading, mean of three wells (Supplementary Fig. 47): source data, Ab alone and No Ab as controls; for Th-T fluorescence, mean of three wells: Supplementary Fig. 47 source data

Chain of Aβ42 (P05067 672-713): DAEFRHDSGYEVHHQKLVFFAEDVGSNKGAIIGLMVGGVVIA

Structure (SMILES): C=C1CCC2C(C)(CCC=C(C)C)C(O)CCC2(C)C1Cc1c(OC)oc(CO)c(C(=O)OC)c1=O (stereo not drawn) [Compound 13]
- Th-T fluorescence of Aβ42 (sheet Fig. 7a), mean of three wells (reading M73): 0.4729
- Th-T fluorescence of Aβ42 (sheet Fig. 7a), mean of three wells (reading M74): 0.4696
- Th-T fluorescence of Aβ42 (sheet Fig. 7a), mean of three wells (reading M75): 0.4709
- Th-T fluorescence of Aβ42 (sheet Fig. 7a), mean of three wells (reading M76): 0.4704
- Th-T fluorescence of Aβ42 (sheet Fig. 7a), mean of three wells (reading M77): 0.4733
- Th-T fluorescence of Aβ42 (sheet Fig. 7a), mean of three wells (reading M78): 0.4716
- Th-T fluorescence of Aβ42 (sheet Fig. 7a), mean of three wells (reading M79): 0.4696
- Th-T fluorescence of Aβ42 (sheet Fig. 7a), mean of three wells (reading M80): 0.4702
- Th-T fluorescence of Aβ42 (sheet Fig. 7a), mean of three wells (reading M81): 0.4727
- Th-T fluorescence of Aβ42 (sheet Fig. 7a), mean of three wells (reading M82): 0.4723
- Th-T fluorescence of Aβ42 (sheet Fig. 7a), mean of three wells (reading M83): 0.4714
- Th-T fluorescence of Aβ42 (sheet Fig. 7a), mean of three wells (reading M84): 0.4716
- Th-T assay plate reading, mean of three wells (Supplementary Fig. 47) (measurement M1): 0.2585
- Th-T assay plate reading, mean of three wells (Supplementary Fig. 47) (measurement M2): 0.2393
- Th-T assay plate reading, mean of three wells (Supplementary Fig. 47) (measurement M3): 0.2328
- Th-T assay plate reading, mean of three wells (Supplementary Fig. 47) (measurement M4): 0.2253
- Th-T assay plate reading, mean of three wells (Supplementary Fig. 47) (measurement M5): 0.2121
- Th-T assay plate reading, mean of three wells (Supplementary Fig. 47) (measurement M6): 0.2004
- Th-T assay plate reading, mean of three wells (Supplementary Fig. 47) (measurement M7): 0.1938
- Th-T assay plate reading, mean of three wells (Supplementary Fig. 47) (measurement M8): 0.1852
- Th-T assay plate reading, mean of three wells (Supplementary Fig. 47) (measurement M9): 0.1809
- Th-T assay plate reading, mean of three wells (Supplementary Fig. 47) (measurement M10): 0.1743
- Th-T assay plate reading, mean of three wells (Supplementary Fig. 47) (measurement M11): 0.1726
- Th-T assay plate reading, mean of three wells (Supplementary Fig. 47) (measurement M12): 0.1685
- Th-T assay plate reading, mean of three wells (Supplementary Fig. 47) (measurement M13): 0.1699
- Th-T assay plate reading, mean of three wells (Supplementary Fig. 47) (measurement M14): 0.1695
- Th-T assay plate reading, mean of three wells (Supplementary Fig. 47) (measurement M15): 0.1669
- Th-T assay plate reading, mean of three wells (Supplementary Fig. 47) (measurement M16): 0.1721
- Th-T fluorescence, mean of three wells (Fig. 7a) (reading M107, compound at 10 (head suffix _10)): 1.546
- Th-T fluorescence, mean of three wells (Fig. 7a) (reading M107, compound at 20 (head suffix _20)): 1.033
- Th-T fluorescence, mean of three wells (Fig. 7a) (reading M107, compound at 50 (head suffix _50)): 0.4755
- Th-T fluorescence, mean of three wells (Fig. 7a) (reading M108, compound at 10 (head suffix _10)): 1.544
- Th-T fluorescence, mean of three wells (Fig. 7a) (reading M108, compound at 20 (head suffix _20)): 1.036
- Th-T fluorescence, mean of three wells (Fig. 7a) (reading M108, compound at 50 (head suffix _50)): 0.4722
- Th-T fluorescence, mean of three wells (Fig. 7a) (reading M109, compound at 10 (head suffix _10)): 1.548
- Th-T fluorescence, mean of three wells (Fig. 7a) (reading M109, compound at 20 (head suffix _20)): 1.038
- Th-T fluorescence, mean of three wells (Fig. 7a) (reading M109, compound at 50 (head suffix _50)): 0.476
- Th-T fluorescence, mean of three wells (Fig. 7a) (reading M110, compound at 10 (head suffix _10)): 1.549
- Th-T fluorescence, mean of three wells (Fig. 7a) (reading M110, compound at 20 (head suffix _20)): 1.043
- Th-T fluorescence, mean of three wells (Fig. 7a) (reading M110, compound at 50 (head suffix _50)): 0.4785
- Th-T fluorescence, mean of three wells (Fig. 7a) (reading M111, compound at 10 (head suffix _10)): 1.553
- Th-T fluorescence, mean of three wells (Fig. 7a) (reading M111, compound at 20 (head suffix _20)): 1.041
- Th-T fluorescence, mean of three wells (Fig. 7a) (reading M111, compound at 50 (head suffix _50)): 0.4751
- Th-T fluorescence, mean of three wells (Fig. 7a) (reading M112, compound at 10 (head suffix _10)): 1.549
- Th-T fluorescence, mean of three wells (Fig. 7a) (reading M112, compound at 20 (head suffix _20)): 1.035
- Th-T fluorescence, mean of three wells (Fig. 7a) (reading M112, compound at 50 (head suffix _50)): 0.4724
- Th-T fluorescence, mean of three wells (Fig. 7a) (reading M113, compound at 10 (head suffix _10)): 1.549
- Th-T fluorescence, mean of three wells (Fig. 7a) (reading M113, compound at 20 (head suffix _20)): 1.03
- Th-T fluorescence, mean of three wells (Fig. 7a) (reading M113, compound at 50 (head suffix _50)): 0.473
- Th-T fluorescence, mean of three wells (Fig. 7a) (reading M114, compound at 10 (head suffix _10)): 1.5404
- Th-T fluorescence, mean of three wells (Fig. 7a) (reading M114, compound at 20 (head suffix _20)): 1.03
- Th-T fluorescence, mean of three wells (Fig. 7a) (reading M114, compound at 50 (head suffix _50)): 0.4728
- Th-T fluorescence, mean of three wells (Fig. 7a) (reading M115, compound at 10 (head suffix _10)): 1.549
- Th-T fluorescence, mean of three wells (Fig. 7a) (reading M115, compound at 20 (head suffix _20)): 1.033
- Th-T fluorescence, mean of three wells (Fig. 7a) (reading M115, compound at 50 (head suffix _50)): 0.477
- Th-T fluorescence, mean of three wells (Fig. 7a) (reading M116, compound at 10 (head suffix _10)): 1.546
- Th-T fluorescence, mean of three wells (Fig. 7a) (reading M116, compound at 20 (head suffix _20)): 1.033
- Th-T fluorescence, mean of three wells (Fig. 7a) (reading M116, compound at 50 (head suffix _50)): 0.4778
- Th-T fluorescence, mean of three wells (Fig. 7a) (reading M117, compound at 10 (head suffix _10)): 1.5424
- Th-T fluorescence, mean of three wells (Fig. 7a) (reading M117, compound at 20 (head suffix _20)): 1.029
- Th-T fluorescence, mean of three wells (Fig. 7a) (reading M117, compound at 50 (head suffix _50)): 0.4747
- Th-T fluorescence, mean of three wells (Fig. 7a) (reading M118, compound at 10 (head suffix _10)): 1.549
- Th-T fluorescence, mean of three wells (Fig. 7a) (reading M118, compound at 20 (head suffix _20)): 1.031
- Th-T fluorescence, mean of three wells (Fig. 7a) (reading M118, compound at 50 (head suffix _50)): 0.4759
- Th-T fluorescence, mean of three wells (Fig. 7a) (reading M119, compound at 10 (head suffix _10)): 1.551
- Th-T fluorescence, mean of three wells (Fig. 7a) (reading M119, compound at 20 (head suffix _20)): 1.035
- Th-T fluorescence, mean of three wells (Fig. 7a) (reading M119, compound at 50 (head suffix _50)): 0.4763
- Th-T fluorescence, mean of three wells (Fig. 7a) (reading M120, compound at 10 (head suffix _10)): 1.5465
- Th-T fluorescence, mean of three wells (Fig. 7a) (reading M120, compound at 20 (head suffix _20)): 1.04
- Th-T fluorescence, mean of three wells (Fig. 7a) (reading M120, compound at 50 (head suffix _50)): 0.4773
- Th-T fluorescence, mean of three wells (Fig. 7a) (reading M121, compound at 10 (head suffix _10)): 1.546
- Th-T fluorescence, mean of three wells (Fig. 7a) (reading M121, compound at 20 (head suffix _20)): 1.029
- Th-T fluorescence, mean of three wells (Fig. 7a) (reading M121, compound at 50 (head suffix _50)): 0.4753
- Th-T fluorescence, mean of three wells (Fig. 7a) (reading M122, compound at 10 (head suffix _10)): 1.544
- Th-T fluorescence, mean of three wells (Fig. 7a) (reading M122, compound at 20 (head suffix _20)): 1.028
- Th-T fluorescence, mean of three wells (Fig. 7a) (reading M122, compound at 50 (head suffix _50)): 0.4755
- Th-T fluorescence, mean of three wells (Fig. 7a) (reading M123, compound at 10 (head suffix _10)): 1.5409
- Th-T fluorescence, mean of three wells (Fig. 7a) (reading M123, compound at 20 (head suffix _20)): 1.032
- Th-T fluorescence, mean of three wells (Fig. 7a) (reading M123, compound at 50 (head suffix _50)): 0.4791
- Th-T fluorescence, mean of three wells (Fig. 7a) (reading M124, compound at 10 (head suffix _10)): 1.548
- Th-T fluorescence, mean of three wells (Fig. 7a) (reading M124, compound at 20 (head suffix _20)): 1.037
- Th-T fluorescence, mean of three wells (Fig. 7a) (reading M124, compound at 50 (head suffix _50)): 0.4785
- Th-T fluorescence, mean of three wells (Fig. 7a) (reading M125, compound at 10 (head suffix _10)): 1.541
- Th-T fluorescence, mean of three wells (Fig. 7a) (reading M125, compound at 20 (head suffix _20)): 1.031
- Th-T fluorescence, mean of three wells (Fig. 7a) (reading M125, compound at 50 (head suffix _50)): 0.4776
- Th-T fluorescence, mean of three wells (Fig. 7a) (reading M126, compound at 10 (head suffix _10)): 1.541
- Th-T fluorescence, mean of three wells (Fig. 7a) (reading M126, compound at 20 (head suffix _20)): 1.031
- Th-T fluorescence, mean of three wells (Fig. 7a) (reading M126, compound at 50 (head suffix _50)): 0.4736
- Th-T fluorescence, mean of three wells (Fig. 7a) (reading M127, compound at 10 (head suffix _10)): 1.546
- Th-T fluorescence, mean of three wells (Fig. 7a) (reading M127, compound at 20 (head suffix _20)): 1.033
- Th-T fluorescence, mean of three wells (Fig. 7a) (reading M127, compound at 50 (head suffix _50)): 0.4763
- Th-T fluorescence, mean of three wells (Fig. 7a) (reading M128, compound at 10 (head suffix _10)): 1.55
- Th-T fluorescence, mean of three wells (Fig. 7a) (reading M128, compound at 20 (head suffix _20)): 1.029
- Th-T fluorescence, mean of three wells (Fig. 7a) (reading M128, compound at 50 (head suffix _50)): 0.4748
- Th-T fluorescence, mean of three wells (time-course reading M97): 1.044
- Th-T fluorescence, mean of three wells (time-course reading M98): 1.046
- Th-T fluorescence, mean of three wells (time-course reading M99): 1.04
- Th-T fluorescence, mean of three wells (time-course reading M100): 1.04
- Th-T fluorescence, mean of three wells (time-course reading M101): 1.043
- Th-T fluorescence, mean of three wells (time-course reading M102): 1.042
- Th-T fluorescence, mean of three wells (time-course reading M103): 1.041
- Th-T fluorescence, mean of three wells (time-course reading M104): 1.042
- Th-T fluorescence, mean of three wells (time-course reading M105): 1.041
- Th-T fluorescence, mean of three wells (time-course reading M106): 1.044
- Th-T fluorescence, mean of three wells (time-course reading M107): 1.043
- Th-T fluorescence, mean of three wells (time-course reading M108): 1.038
- Th-T fluorescence, mean of three wells (time-course reading M109): 1.039
- Th-T fluorescence, mean of three wells (time-course reading M110): 1.044
- Th-T fluorescence, mean of three wells (time-course reading M111): 1.042
- Th-T fluorescence, mean of three wells (time-course reading M112): 1.039
- Th-T fluorescence, mean of three wells (time-course reading M113): 1.042
- Th-T fluorescence, mean of three wells (time-course reading M114): 1.037
- Th-T fluorescence, mean of three wells (time-course reading M115): 1.041
- Th-T fluorescence, mean of three wells (time-course reading M116): 1.037
